For one data set, the target named is T1, hPRB and TIF-2 (Homo sapiens, UniProt P06401).
T1 construct: expressed in transfected cells; host or cells: HEK 293T
T1 sequence (P06401 1-933): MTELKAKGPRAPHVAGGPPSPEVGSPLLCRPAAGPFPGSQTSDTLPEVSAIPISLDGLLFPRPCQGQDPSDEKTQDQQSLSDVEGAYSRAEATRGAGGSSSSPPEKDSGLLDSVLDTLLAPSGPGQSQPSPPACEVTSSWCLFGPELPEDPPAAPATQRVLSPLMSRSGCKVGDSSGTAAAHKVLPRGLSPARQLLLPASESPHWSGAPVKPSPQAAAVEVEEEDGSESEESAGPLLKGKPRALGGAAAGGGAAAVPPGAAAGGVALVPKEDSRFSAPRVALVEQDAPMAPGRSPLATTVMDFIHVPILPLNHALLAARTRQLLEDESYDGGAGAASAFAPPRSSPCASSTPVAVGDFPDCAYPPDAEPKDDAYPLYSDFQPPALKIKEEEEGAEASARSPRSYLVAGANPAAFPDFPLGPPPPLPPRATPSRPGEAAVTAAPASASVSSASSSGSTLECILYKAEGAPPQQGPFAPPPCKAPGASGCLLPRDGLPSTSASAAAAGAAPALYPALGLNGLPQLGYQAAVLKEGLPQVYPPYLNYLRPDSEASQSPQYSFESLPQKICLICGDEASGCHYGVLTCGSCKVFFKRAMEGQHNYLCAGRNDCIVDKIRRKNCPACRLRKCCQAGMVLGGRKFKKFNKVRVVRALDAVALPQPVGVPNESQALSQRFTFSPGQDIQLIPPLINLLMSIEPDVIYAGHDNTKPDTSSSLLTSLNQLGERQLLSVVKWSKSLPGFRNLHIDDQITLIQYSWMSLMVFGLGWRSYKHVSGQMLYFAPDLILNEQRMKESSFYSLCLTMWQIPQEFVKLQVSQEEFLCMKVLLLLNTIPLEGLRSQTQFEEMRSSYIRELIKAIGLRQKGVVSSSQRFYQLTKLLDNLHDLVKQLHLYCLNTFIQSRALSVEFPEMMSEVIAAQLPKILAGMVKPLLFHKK
The experiment in a line: Mammalian two hybrid assay, recruitment of co-activator TIF-2 (TIF-2-Nter, TIF-2-NterRID) by hPRB. The format is cell-based. The following applies: HEK293T; for recruitment of co-activator TIF-2 sequences by hPRB upon ligand binding: TIF-2-Nter and TIF-2-NterRID, FIGS. 15-17; for inhibition of progesterone induced TIF-2 recruitment by hPRB: two hybrid, FIG. 18. On the procedure:
Mammalian Two Hybrid Assays.
To investigate whether hPR was able to recruit transcriptional corepressors upon APRn binding, two hybrid assays have been performed in HEK 293T cells. Cell transfection were carried out according to the protocol used for the PR transactivation assays, with 1 μg of pGAL4-SMRT or pGAL4-NcoR, 2.5 μg of the PR expression vector pV16-PR and 5 μg of the reporter pG5-luc. The plasmid pGAL4-SMRT and pGAL4-NcoR, provided by P. Balaguer, encode the fusion protein between the GAL4 DNA-binding domain (GAL4DBD) and the receptor interacting domain (RID) of the corepressor […], respectively. The expression vector pV16PR encodes the VP16 activation domain of herpes simplex virus fused to the entire hPR and pG5-luc, provided by P. Fuller, encodes the luciferase gene driven by a GAL4-responsive promoter. […] Cell transfection were carried out according to the PR transactivation assays, by using 2 μg of pM-TIF2/Nter-RID or […], 2 μg of the expression vector pV16PR and 5 μg of the reporter pG5luc. The plasmids pM-TIF2/Nter-RID encodes the fusion proteins between the GAL4 DBD and the 1-867 TIF2 sequence corresponding to the Nter and RID domains. The plasmids pMTIF2-Nter encodes the fusion proteins between the GAL4 DBD and the 1-623 TIF2 sequence corresponding to the Nter domain. After 16 h incubation, the transfected cells were washed with PBS containing 2.5 mM EDTA, trypsinized and replated in 24-well plates. […] Cells were lysed and the luciferase and activities were quantified by using a Mithras reader microplates (Berthold).
Both agonist- and antagonist-bound PR regulate gene transcription with the assistance of transcriptional co-repressors (NCoR, SMRT) or co-activators (namely, TIF-2). To characterize the mechanism by which APRn inactivate hPRB, the capacity of hPRB to recruit transcriptional co-regulators upon APRn binding has been evaluated. With this aim, mammalian two-hybrid assays in HEK293T cells have been performed by using two series of fusion proteins: (i) the VP16 activation domain of herpes simplex virus fused to the entire hPRB and (ii) the GAL4 DNA-binding domain (DBD) fused to the receptor interacting domain (RID) of corepressors (NCoR and SMRT), the GAL4 DBD fused to the 1-867 sequence of the co-activator TIF2 (corresponding to the Nter and RID domains), the GAL4 DBD fused to the 1-623 sequence of TIF2 (corresponding to the Nter domain).
Further, the capacity of hPRB to bind the co-activator TIF-2 was examined. The two-hybrid assays were performed with the TIF-2 sequence encompassing its N-ter region alone (TIF-2-Nter) or the sequence including the N-ter and the RID regions (TIF-2-NterRID).

SMILES strings stand for the structures.

Usually melting point stands for the temperature, or range, at which the solid turns liquid. In the case of `CC(=O)[C@H]1CC[C@H]2[C@@H]3CC=C4C[C@@H](F)CC[C@]4(C)[C@H]3CC[C@]12C` [APR-16, 3β-Fluoropregn-5-en-20-one], the melting point was in the range of 166 to 167 °C. For the same compound, on hPRB and TIF-2, the “recruitment of co-activator TIF-2 sequences by hPRB upon ligand binding” value (from here on “recruitment … by hPRB upon ligand binding”) is on record as “unable to recruit the two TIF-2 sequences” and the “inhibition of progesterone induced TIF-2 recruitment by hPRB” value (from here on “inhibition”) is recorded as “able to inhibit the progesterone induced TIF-2 recruitment”.
`CC#C[C@]1(O)CCC2C3CC[C@H]4CCCC[C@]4(C)C3CC[C@@]21C` (stereo partly drawn) [APR-42, 17α-(1-Propynyl)-5α-androstan-17β-ol] displayed a melting point of 150 to 151 °C.
On the same count and under the same terms, as for `CC#C[C@]1(O)CCC2C3CC[C@H]4C[C@@H](F)CC[C@]4(C)C3CC[C@@]21C` (stereo partly drawn) [APR-43, 3β-Fluoro-17α-(1-propynyl)-5α-androstan-17β-ol], the figure is 139 to 140 °C.
In turn, `C[C@]12CCC3C(CC=C4C[C@@H](F)CC[C@@H]43)C1CCC2=O` (stereo partly drawn) [APR-47, 3β-Fluoro-19-nor-androst-5-en-17-one] yielded a melting point of 102 to 103 °C. In addition, on hPRB and TIF-2, the “recruitment … by hPRB upon ligand binding” value is “unable to recruit the two TIF-2 sequences” and the “inhibition” value is on record as “able to inhibit the progesterone induced TIF-2 recruitment”.
For the compound `CC#C[C@]1(O)CCC2C3CC=C4C[C@@H](F)CC[C@@H]4C3CC[C@@]21C` (stereo partly drawn) [APR-51, 3β-Fluoro-17α-(1-propynyl)-19-nor-androst-5-en-17β-ol], the melting point was 72 to 73 °C.
For the compound `CC#C[C@]1(O)CCC2C3CC[C@H]4CCCC[C@@H]4C3CC[C@@]21C` (stereo partly drawn) [APR-54, 17α-(1-Propynyl)-19-nor-5-androstan-17β-ol], at hPRB and TIF-2, the “recruitment … by hPRB upon ligand binding” value was “unable to recruit the two TIF-2 sequences” and the “inhibition” value was “able to inhibit the progesterone induced TIF-2 recruitment”.

These data come from US20130203718A1 (priority 2010, published 2013).
